Experiments:
[1] = Displacement of [3H]BTA-1 from amyloid beta 1 to 40 by competitive binding assay
[2] = Binding affinity to amyloid beta 1 to 40

Ki [1]	Kd [2]	Compound
58.6 nM		COc1ccc2c(c1)sc1nc(-c3ccc(N(C)C)cc3)cn12
29.8 nM		COc1ccc2c(c1)sc1nc(-c3ccc(N)cc3)cn12
6.09 nM		COc1ccc2c(c1)sc1nc(-c3ccc(N[11CH3])cc3)cn12
133 nM		Nc1ccc(-c2cn3c(n2)sc2cc(F)ccc23)cc1
38.1 nM		CNc1ccc(-c2cn3c(n2)sc2cc(F)ccc23)cc1
42.9 nM		CN(C)c1ccc(-c2cn3c(n2)sc2cc(F)ccc23)cc1
28.8 nM		Nc1ccc(-c2cn3c(n2)sc2cc(Br)ccc23)cc1
34.5 nM		CNc1ccc(-c2cn3c(n2)sc2cc(Br)ccc23)cc1
43.4 nM		CN(C)c1ccc(-c2cn3c(n2)sc2cc(Br)ccc23)cc1
10.9 nM		COc1ccc2c(c1)sc1nc(-c3ccc([123I])cc3)cn12
41.9 nM		Fc1ccc2c(c1)sc1nc(-c3ccc(I)cc3)cn12
21.1 nM		Brc1ccc2c(c1)sc1nc(-c3ccc(I)cc3)cn12
17.7 nM		Cc1ccc2c(c1)sc1nc(-c3ccc(I)cc3)cn12
9.4 nM		COc1ccc2c(c1)sc1nc(-c3ccc(Br)cc3)cn12
26 nM		Cc1ccc2c(c1)sc1nc(-c3ccc(Br)cc3)cn12
[…]	10 nM	CN(C)c1ccc(-c2cn3cc([123I])ccc3n2)cc1
4.5 nM		CNc1ccc(-c2nc3ccc(O)cc3s2)cc1 [PITTSBURGH COMPOUND B UNLABELLED]
11 nM	10 nM	[11CH3]Nc1ccc(-c2nc3ccc(O)cc3s2)cc1 [PITTSBURGH COMPOUND B]
